Source: the OligoGym collection
Oligonucleotides are written 5' to 3', each unit as a sugar letter and its base; * is a phosphorothioate linkage, no mark a phosphodiester; rarer units and linkages stand in square brackets, end groups in braces. Plain capitals give the bases only. d = 2'-deoxy (DNA); r = 2'-OH (RNA)

Each substance was assayed against NOG (assay: reporter assay of Huesken 2005). Details: siRNA.
Also: test concentration or dose not given here.

Q: With “sense rArCrGrArCrCrUrGrGrGrCrArGrCrCrGrCrUrUdTdT / antisense rArArGrCrGrGrCrUrGrCrCrCrArGrGrUrCrGrUdTdC” as the substance, how does the normalised inhibition (eCFP-eYFP dual reporter) read?
A: The normalised inhibition (eCFP-eYFP dual reporter) was 51.1%.

Q: “sense rArCrUrArUrCrUrCrCrArCrArUrCrCrGrCrCrCdTdT / antisense rGrGrGrCrGrGrArUrGrUrGrGrArGrArUrArGrUdGdC” was tested. Which normalised inhibition (eCFP-eYFP dual reporter) did it give?
A: The normalised inhibition (eCFP-eYFP dual reporter) was 52.8%.

Q: With “sense rArGrArGrUrUrCrUrCrCrGrArGrGrGrCrUrUrGdTdT / antisense rCrArArGrCrCrCrUrCrGrGrArGrArArCrUrCrUdAdG” as the substance, how does the normalised inhibition (eCFP-eYFP dual reporter) read?
A: Its normalised inhibition (eCFP-eYFP dual reporter) is 55.1%.

Q: “sense rArGrCrArArGrArArGrCrUrGrCrGrGrArGrGrAdTdT / antisense rUrCrCrUrCrCrGrCrArGrCrUrUrCrUrUrGrCrUdTdA” was tested. Which normalised inhibition (eCFP-eYFP dual reporter) did it give?
A: Its normalised inhibition (eCFP-eYFP dual reporter) is 97.7%.

Q: With “sense rArGrGrGrCrArUrGrGrUrGrUrGrCrArArGrCrCdTdT / antisense rGrGrCrUrUrGrCrArCrArCrCrArUrGrCrCrCrUdCdG” as the substance, how does the normalised inhibition (eCFP-eYFP dual reporter) read?
A: Its normalised inhibition (eCFP-eYFP dual reporter) is 75.7%.

Q: For “sense rArGrUrArArGrCrGrCrUrCrGrUrGrCrUrCrCrGdTdT / antisense rCrGrGrArGrCrArCrGrArGrCrGrCrUrUrArCrUdGdA”, which normalised inhibition (eCFP-eYFP dual reporter) is on record?
A: The normalised inhibition (eCFP-eYFP dual reporter) was 51%.

Q: How did the normalised inhibition (eCFP-eYFP dual reporter) turn out when “sense rArUrCrCrGrCrCrCrGrGrCrArCrCrCrArGrCrGdTdT / antisense rCrGrCrUrGrGrGrUrGrCrCrGrGrGrCrGrGrArUdGdT” was run?
A: Its normalised inhibition (eCFP-eYFP dual reporter) is 42.7%.

Q: “sense rArUrCrUrCrCrArCrArUrCrCrGrCrCrCrGrGrCdTdT / antisense rGrCrCrGrGrGrCrGrGrArUrGrUrGrGrArGrArUdAdG” was tested. Which normalised inhibition (eCFP-eYFP dual reporter) did it give?
A: Its normalised inhibition (eCFP-eYFP dual reporter) is 60.2%.

Q: With “sense rArUrGrGrUrGrUrGrCrArArGrCrCrGrUrCrCrAdTdT / antisense rUrGrGrArCrGrGrCrUrUrGrCrArCrArCrCrArUdGdC” as the substance, how does the normalised inhibition (eCFP-eYFP dual reporter) read?
A: The normalised inhibition (eCFP-eYFP dual reporter) was 86.2%.

Q: With “sense rArUrUrCrUrGrCrCrCrCrGrUrGrCrUrGrUrArCdTdT / antisense rGrUrArCrArGrCrArCrGrGrGrGrCrArGrArArUdGdT” as the substance, how does the normalised inhibition (eCFP-eYFP dual reporter) read?
A: The normalised inhibition (eCFP-eYFP dual reporter) was 51%.

Q: How did the normalised inhibition (eCFP-eYFP dual reporter) turn out when “sense rCrArArGrGrArArArArGrGrArUrCrUrGrArArCdTdT / antisense rGrUrUrCrArGrArUrCrCrUrUrUrUrCrCrUrUrGdGdG” was run?
A: Its normalised inhibition (eCFP-eYFP dual reporter) is 95.1%.

Q: Which normalised inhibition (eCFP-eYFP dual reporter) does the source give for “sense rCrArCrCrUrCrArCrGrGrUrGrCrUrGrCrGrGrUdTdT / antisense rArCrCrGrCrArGrCrArCrCrGrUrGrArGrGrUrGdCdA” here?
A: Its normalised inhibition (eCFP-eYFP dual reporter) is 56.3%.

Q: How did the normalised inhibition (eCFP-eYFP dual reporter) turn out when “sense rCrArGrArCrCrCrUrArUrCrUrUrUrGrArCrCrCdTdT / antisense rGrGrGrUrCrArArArGrArUrArGrGrGrUrCrUrGdGdG” was run?
A: The normalised inhibition (eCFP-eYFP dual reporter) was 88.8%.

Q: “sense rCrArGrCrGrCrCrUrArArGrCrArArGrArArGrCdTdT / antisense rGrCrUrUrCrUrUrGrCrUrUrArGrGrCrGrCrUrGdCdT” was tested. Which normalised inhibition (eCFP-eYFP dual reporter) did it give?
A: The normalised inhibition (eCFP-eYFP dual reporter) was 62.6%.

Q: “sense rCrArGrCrUrGrCrUrUrCrArGrUrArArGrCrGrCdTdT / antisense rGrCrGrCrUrUrArCrUrGrArArGrCrArGrCrUrGdCdC” was tested. Which normalised inhibition (eCFP-eYFP dual reporter) did it give?
A: The normalised inhibition (eCFP-eYFP dual reporter) was 56.5%.

Q: With “sense rCrCrArCrArUrCrCrGrCrCrCrGrGrCrArCrCrCdTdT / antisense rGrGrGrUrGrCrCrGrGrGrCrGrGrArUrGrUrGrGdAdG” as the substance, how does the normalised inhibition (eCFP-eYFP dual reporter) read?
A: Its normalised inhibition (eCFP-eYFP dual reporter) is 51.4%.

Q: For “sense rCrCrArGrCrUrGrCrUrGrCrGrGrCrArGrCrGrGdTdT / antisense rCrCrGrCrUrGrCrCrGrCrArGrCrArGrCrUrGrGdTdC”, which normalised inhibition (eCFP-eYFP dual reporter) is on record?
A: Its normalised inhibition (eCFP-eYFP dual reporter) is 78.3%.

Q: “sense rCrCrCrArGrCrGrArCrArArCrCrUrGrCrCrCrCdTdT / antisense rGrGrGrGrCrArGrGrUrUrGrUrCrGrCrUrGrGrGdTdG” was tested. Which normalised inhibition (eCFP-eYFP dual reporter) did it give?
A: Its normalised inhibition (eCFP-eYFP dual reporter) is 68.1%.

Q: For “sense rCrCrCrGrUrGrCrUrGrUrArCrGrCrGrUrGrGrAdTdT / antisense rUrCrCrArCrGrCrGrUrArCrArGrCrArCrGrGrGdGdC”, which normalised inhibition (eCFP-eYFP dual reporter) is on record?
A: Its normalised inhibition (eCFP-eYFP dual reporter) is 60.3%.

Q: “sense rCrCrUrArUrCrUrUrUrGrArCrCrCrCrArArGrGdTdT / antisense rCrCrUrUrGrGrGrGrUrCrArArArGrArUrArGrGdGdT” was tested. Which normalised inhibition (eCFP-eYFP dual reporter) did it give?
A: The normalised inhibition (eCFP-eYFP dual reporter) was 89.1%.

Q: How did the normalised inhibition (eCFP-eYFP dual reporter) turn out when “sense rCrCrUrCrArCrGrGrUrGrCrUrGrCrGrGrUrGrGdTdT / antisense rCrCrArCrCrGrCrArGrCrArCrCrGrUrGrArGrGdTdG” was run?
A: The normalised inhibition (eCFP-eYFP dual reporter) was 70.1%.

Q: How did the normalised inhibition (eCFP-eYFP dual reporter) turn out when “sense rCrCrUrCrArUrCrGrArArCrArCrCrCrArGrArCdTdT / antisense rGrUrCrUrGrGrGrUrGrUrUrCrGrArUrGrArGrGdTdC” was run?
A: The normalised inhibition (eCFP-eYFP dual reporter) was 79.3%.

Q: With “sense rCrCrUrGrGrUrGrGrArCrCrUrCrArUrCrGrArAdTdT / antisense rUrUrCrGrArUrGrArGrGrUrCrCrArCrCrArGrGdGdG” as the substance, how does the normalised inhibition (eCFP-eYFP dual reporter) read?
A: Its normalised inhibition (eCFP-eYFP dual reporter) is 81.7%.

Q: “sense rCrGrCrArGrArCrArUrUrCrUrGrCrCrCrCrGrUdTdT / antisense rArCrGrGrGrGrCrArGrArArUrGrUrCrUrGrCrGdAdC” was tested. Which normalised inhibition (eCFP-eYFP dual reporter) did it give?
A: Its normalised inhibition (eCFP-eYFP dual reporter) is 53%.

Q: For “sense rCrGrCrUrGrCrUrGrCrGrCrUrCrGrCrUrGrCrUdTdT / antisense rArGrCrArGrCrGrArGrCrGrCrArGrCrArGrCrGdTdC”, which normalised inhibition (eCFP-eYFP dual reporter) is on record?
A: The normalised inhibition (eCFP-eYFP dual reporter) was 73.4%.

Q: With “sense rCrUrGrArArCrGrArGrArCrGrCrUrGrCrUrGrCdTdT / antisense rGrCrArGrCrArGrCrGrUrCrUrCrGrUrUrCrArGdAdT” as the substance, how does the normalised inhibition (eCFP-eYFP dual reporter) read?
A: The normalised inhibition (eCFP-eYFP dual reporter) was 46.9%.

Q: With “sense rCrUrGrGrCrGrGrArGrCrUrGrGrArCrCrArGrCdTdT / antisense rGrCrUrGrGrUrCrCrArGrCrUrCrCrGrCrCrArGdGdT” as the substance, how does the normalised inhibition (eCFP-eYFP dual reporter) read?
A: Its normalised inhibition (eCFP-eYFP dual reporter) is 58.7%.

Q: With “sense rGrArArCrGrArCrCrUrGrGrGrCrArGrCrCrGrCdTdT / antisense rGrCrGrGrCrUrGrCrCrCrArGrGrUrCrGrUrUrCdCdA” as the substance, how does the normalised inhibition (eCFP-eYFP dual reporter) read?
A: The normalised inhibition (eCFP-eYFP dual reporter) was 59.1%.

Q: How did the normalised inhibition (eCFP-eYFP dual reporter) turn out when “sense rGrArArCrGrArGrArCrGrCrUrGrCrUrGrCrGrCdTdT / antisense rGrCrGrCrArGrCrArGrCrGrUrCrUrCrGrUrUrCdAdG” was run?
A: The normalised inhibition (eCFP-eYFP dual reporter) was 74.1%.

Q: With “sense rGrArArGrCrArGrCrGrCrCrUrArArGrCrArArGdTdT / antisense rCrUrUrGrCrUrUrArGrGrCrGrCrUrGrCrUrUrCdTdT” as the substance, how does the normalised inhibition (eCFP-eYFP dual reporter) read?
A: The normalised inhibition (eCFP-eYFP dual reporter) was 83%.

Q: “sense rGrArArGrCrUrGrCrGrGrArGrGrArArGrUrUrAdTdT / antisense rUrArArCrUrUrCrCrUrCrCrGrCrArGrCrUrUrCdTdT” was tested. Which normalised inhibition (eCFP-eYFP dual reporter) did it give?
A: Its normalised inhibition (eCFP-eYFP dual reporter) is 102%.

Q: For “sense rGrArCrCrArGrCrUrGrCrUrGrCrGrGrCrArGrCdTdT / antisense rGrCrUrGrCrCrGrCrArGrCrArGrCrUrGrGrUrCdCdA”, which normalised inhibition (eCFP-eYFP dual reporter) is on record?
A: Its normalised inhibition (eCFP-eYFP dual reporter) is 55.2%.

Q: “sense rGrArCrCrCrArGrGrCrUrUrCrArUrGrGrCrCrAdTdT / antisense rUrGrGrCrCrArUrGrArArGrCrCrUrGrGrGrUrCdGdT” was tested. Which normalised inhibition (eCFP-eYFP dual reporter) did it give?
A: Its normalised inhibition (eCFP-eYFP dual reporter) is 82.6%.

Q: For “sense rGrArCrCrUrGrGrGrCrArGrCrCrGrCrUrUrUrUdTdT / antisense rArArArArGrCrGrGrCrUrGrCrCrCrArGrGrUrCdGdT”, which normalised inhibition (eCFP-eYFP dual reporter) is on record?
A: Its normalised inhibition (eCFP-eYFP dual reporter) is 77.1%.

Q: With “sense rGrArCrGrCrUrGrCrUrGrCrGrCrUrCrGrCrUrGdTdT / antisense rCrArGrCrGrArGrCrGrCrArGrCrArGrCrGrUrCdTdC” as the substance, how does the normalised inhibition (eCFP-eYFP dual reporter) read?
A: Its normalised inhibition (eCFP-eYFP dual reporter) is 70.9%.

Q: “sense rGrArGrCrUrGrGrArCrCrArGrCrUrGrCrUrGrCdTdT / antisense rGrCrArGrCrArGrCrUrGrGrUrCrCrArGrCrUrCdCdG” was tested. Which normalised inhibition (eCFP-eYFP dual reporter) did it give?
A: Its normalised inhibition (eCFP-eYFP dual reporter) is 71.8%.

Q: Which normalised inhibition (eCFP-eYFP dual reporter) does the source give for “sense rGrArUrCrArArArGrGrGrCrUrArGrArGrUrUrCdTdT / antisense rGrArArCrUrCrUrArGrCrCrCrUrUrUrGrArUrCdTdC” here?
A: The normalised inhibition (eCFP-eYFP dual reporter) was 78.3%.
